Experimental data published in article PMC8615215, “Structural and Biochemical Characterization of Thioredoxin-2 from Deinococcus radiodurans” (Antioxidants, 2021).

Biological target: T1, DrTrxR (Deinococcus radiodurans, UniProt Q9RSY7)
T1 construct: gene DR_1982; residues 2-325, non-cleavable N-terminal His6 tag (MHHHHHH), pET-22b, expressed in E. coli BL21(DE3), Ni-NTA and size exclusion
Test: NADPH consumption at […] nm, insulin reduction coupled through DrTrx1 or DrTrx2
Type: biochemical
Conditions: 0.1 mM NADPH, 0.1 uM DrTrxR, 0.1 uM DrTrx1 or 0.5 uM DrTrx2, bovine insulin, 50 mM Tris-HCl pH 7.4, room temperature

T1 sequence (Q9RSY7 entry or part of it): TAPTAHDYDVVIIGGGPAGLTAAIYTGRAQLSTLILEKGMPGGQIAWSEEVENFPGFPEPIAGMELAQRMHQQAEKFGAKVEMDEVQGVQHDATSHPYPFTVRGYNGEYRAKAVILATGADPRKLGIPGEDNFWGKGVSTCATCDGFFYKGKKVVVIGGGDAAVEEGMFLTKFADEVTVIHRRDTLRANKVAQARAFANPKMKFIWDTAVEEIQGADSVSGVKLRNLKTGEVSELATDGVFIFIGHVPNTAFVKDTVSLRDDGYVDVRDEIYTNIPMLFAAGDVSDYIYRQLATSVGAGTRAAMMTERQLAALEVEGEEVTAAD

NC(=O)C1=CN([C@@H]2O[C@H](COP(=O)(O)OP(=O)(O)OC[C@H]3O[C@@H](n4cnc5c(N)ncnc54)[C@H](OP(=O)(O)O)[C@@H]3O)[C@@H](O)[C@H]2O)C=CC1 [NADPH]
NADPH consumption at 340 nm, insulin reduction coupled through DrTrx1 or DrTrx2: In the presence of DrTrxR/NADPH, both DrTrx1 and DrTrx2 caused a notable decrease
